Data as given in US20160082036A1, “HYDROXYALKYL STARCH FOR THE TREATMENT OF CANCERS BY REDUCTION OF TUMOR GROWTH RATES” (Fresenius Kabi Deutschland GmbH, priority 2012, published 2016).

Columns and labels:
[1] = Example 2: body weight and blood parameters of MT-3 tumor-bearing mice; format: in vivo, NMRI:nu/nu mice
Description: Summary: Mice were either treated with a single i.v. injection of docetaxel (Taxotere®) at a dose of 25 mg/kg or with the plasma expander Voluven® (20 ml/kg) or with HES 100/1.0 (approx. 740 mg/kg) dissolved in saline/EtOH to determine tumor growth and body weight over the course of the experiment.
Adult female NMRI:nu/nu mice (TACONIC Europe, Lille Skensved, Denmark) bred in the own (EPO) colony were used throughout the study.
The application volume was 10 ml/kg (approx. 200 μl/20 g mouse) mouse body weight for vehicle, HES 100/1.0 and docetaxel and 20 ml/kg for Voluven®. The route of administration was by intravenous (i.v.) injection into the tail vein.
Individual body weights of mice were determined two times weekly and mean body weight per treatment group.
Blood samples were drawn from the retro-orbital sinus under iso-flurane anaesthesia three days after the treatment. Blood samples of 50-100 μl were taken into tubes prepared with EDTA for haematological parameters from a subset of each group (generally 30-50%). The following parameters were determined: total leucocyte count (WBC), erythrocyte count (RBC), haemoglobin (HGB), haematocrit (HCT), mean corpuscular volume (MCV), mean corpuscular haemoglobin (MCH), mean corpuscular haemoglobin concentration (MCHC) and platelet count (PLT) using a Coulter Counter instrument.
Statistical evaluation of was performed with the U-test of Mann and Whitney using the Windows program […] 6. A significance level of p<0.05 was used.

[2] = test system: human breast cell carcinoma line MT-3; test: Example 5: MT-3 xenograft tumor growth, three studies with different HES types; format: in vivo
Description: In another set of three studies which were performed in analogy to the studies described above in Examples 1 and 2, more different HES types have been analysed in the same setting using the MT3 cell line mouse model.
Docetaxel (Taxotere®) was obtained from Sanofi-Aventis Deutschland GmbH, (Lot CHB D9C895; Berlin, Germany) and was stored in the dark at −20° C. until use. The injection solution was prepared immediately before use by dissolving in saline solution.
Hydroxyethyl starch compounds were obtained from Fresenius Kabi Deutschland GmbH on Dec. 7, 2012 and were stored at room temperature until use. The compounds each were dissolved in saline to obtain 10% w/v solutions. The application was 400 μl/20 g mouse body weight for saline and HES solutions, while Docetaxel was given in a volume of 10 ml/kg as slow bolus. The route of administration was intravenously for all mice.
Adult female NMRI:nu/nu mice (TACONIC Europe, Lille Skensved, Denmark) bred in the own (EPO) colony were used throughout the study. At the start of experiment they were 6-8 weeks of age.
The MT-3 cell line was used for subcutaneous (s.c.) xenotransplantation in immune deficient female NMRI:nu/nu mice. The MT-3 breast carcinoma cell line was obtained from the tumour bank of the National Cancer Institute of the former USSR, WONZ, Moscow.
The cells are cryo-preserved. Cells were thawed, expanded by in vitro culture and transplanted s.c. as cell suspension in female NMRI:nu/nu mice.
The number of 5×10^6 tumour cells was transplanted s.c into the flank of each mouse. The animals were monitored for tumour growth and when tumours were palpable, generally between day 7 and day 10 after transplantation, mice were randomised into the treatment groups with 15 mice each. Day 0 is defined as the day of first treatment.
Individual tumour diameters were measured twice weekly with a calliper-like instrument. Tumour volumes were calculated according to V=(length×(width)^2)/2. […] The relative tumour volume (RTV) and the treated to control (T/C RTV) values in percent were calculated for each measurement day in relation to V values at day 0.
In study 3 mice were sacrificed when the tumor size reached more than 1.5 cm^3, or the tumors ulcereted. Study 3 was finished when the mean TV was in most groups larger than 1.0 cm^3.
Mice were treated with i.v. injection of Docetaxel (Taxotere®) at day 0 and 14 at a dose of 40 mg/kg and with the hydroxyethyl starch compounds (20 ml/kg) once weekly.
In study 1 all mice developed tumours after s.c. transplantation of 5×10^6 MT-3 cells up to a size of 0.046±0.015 cm^3 within 7 days. Mice were treated intravenously with a dose of 40 mg/kg Docetaxel (Taxotere®) at days 0 and 14, whereas four different HES specifications in saline (containing each 10% w/v) were injected in a volume of 20 ml/kg i.v. weekly (day 0, 7, 14). Saline was injected once a week (20 ml/kg). All groups were treated during the whole experimental period accordingly to the planned schedule. The tumour of control mice in study 1 grew up to a volume of 1.1±0.6 cm^3.
In study 2 all mice developed tumours after s.c. transplantation of 5×10^6 MT-3 cells up to a size of 0.081±0.033 cm^3 within 9 days. Mice were treated intravenously with a dose of 40 mg/kg docetaxel at days 0 and 14, whereas four different HES specifications in saline (containing each 10% w/v) were injected in a volume of 20 ml/kg i.v. weekly (day 0, 7, 14). Saline was injected once per week (20 ml/kg). All groups were treated during the whole experimental period accordingly to the planned schedule. The tumour of control mice grew up until day 18 to a volume of 1.48±1.04 cm^3.
In study 3 all mice developed tumours after s.c. transplantation of 5×10^6 MT-3 cells up to a size of 0.059±0.018 cm3 within 7 days. […]

[3] = blood drawn three days after single i.v. treatment

CC(=O)O[C@@]12CO[C@@H]1C[C@H](O)[C@@]1(C)C(=O)[C@H](O)C3=C(C)[C@@H](OC(=O)[C@H](O)[C@@H](NC(=O)OC(C)(C)C)c4ccccc4)C[C@@](O)([C@@H](OC(=O)c4ccccc4)[C@H]21)C3(C)C [Docetaxel]
body weight development (in words) ([1]; after single i.v. treatment, FIG. 1): Body weight loss | Platelets × 10^6 at day 11 [1, 3]: 1500 ± 156 × 10^6 | WBC × 10^6 at day 11 [1, 3]: 4.80 ± 0.58 × 10^6 | tumour growth inhibition effect (in words) ([2]; studies 1 to 3, compared to saline control, FIGS. 7, 9, 11): strong inhibitory effect on tumour growth | RTV T/C ([2]; study 1): 14.4% | inhibition of tumour growth ([2]; study 1): more than 85% | RTV T/C ([2]; study 2): 16.9% | inhibition of tumour growth ([2]; study 2): 83% | RTV T/C ([2]; study 3, at day 7): 8.8% | inhibition of tumour growth ([2]; study 3, at day 7): 91%
